Laboratory results taken from PubChem BioAssay AID588477 (NMMLSC, 2011).
Calls of active or inactive are those of the source.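 The calls were made as follows: active = valid curve fit with half-effect dose at most 10 µM and total binding change across doses of 30 points or more; inactive = the rest.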

Assays:
[1] = inhibitors of Bodipy-GTP binding across eight GTPases, SAR follow-up, selectivity assay for Cdc42 probe extension project, biochemical, round 1 SAR, Mg buffer, multiplex flow cytometry (AID 588477); details: GST-GTPase beads, Cdc42 constitutively active
Cdc42 wt = assay: as above; details: GST-GTPase beads

## O=C(C#Cc1ccccc1)c1cccc([N+](=O)[O-])c1
[1]
  EC50: 2.68 µM
Cdc42 wt; at 100 µM (top of the series)
  percent response (remaining binding): inactive

## NS(=O)(=O)c1ccc(N2N=C(c3ccccc3)CC2c2ccccc2)cc1 (stereo unspecified)
[1]; at 100 µM (top of the series)
  percent response (remaining binding): inactive
Cdc42 wt
  EC50: 7.26 µM

## COc1ccc(C2CC(c3ccccc3)=NN2c2ccc(S(N)(=O)=O)cc2)cc1 (stereo unspecified)
[1]
  EC50: 3.69 µM
Cdc42 wt
  EC50: 2.41 µM
